Source: patent US12233041B2, “Disulfonate stilbenes for use in the treatment of proliferative diseases” (UNIVERSITÉ DE NANTES, priority 2018, dated 2025)
Like-named read-outs stand apart in the source and are kept apart here.

How the values were obtained:
DU-145 cell line = assay: Clonogenicity test, sensitizing effect with an antineoplastic drug; type: cell-based; details: Homo sapiens; DU-145, camptothecin alone; read-out: IC50 (clonogenic survival, camptothecin)
Procedure: Clonogenicity tests are carried out against several model cell lines derived from cancer including prostate cancer (DU-145). Cells are exposed to an anti-cancer agent targeting DNA (cisplatin or camptothecin). Damaged cells are counted and seeded in the presence or in the absence of B-2 in triplicate culture plates. After about two weeks of incubation at 37° C. the number of clones formed is counted. Each cell capable of repairing its lesions will then form a clone. After counting, the percentage of survival will be calculated relative to the control condition for which it is considered that there is 100% survival.
The main interest of RAD51 protein inhibitors is the sensitization of chemo-resistant or radio-resistant cancerous cell lines. Clonogenicity evaluation was carried out on the DU-145 cell line treated with cisplatin treatment in the presence or in the absence of disulfonate stilbene B-2 (RAD51 protein inhibitor).
DU-145 cell line was treated with camptothecin in the presence or in the absence of disulfonate stilbene B-2 (RAD51 protein inhibitor) and the clonogenic cell survival was determined.

Rad51 [1] = molecular target: T1, Rad51 (Homo sapiens, UniProt Q06609); assay: RAD51 nucleofilament formation by Bio-Layer Interferometry (BLItz), binding of Rad51 to ssDNA; details: for formation of RAD51 protein nucleofilament (relative binding of RAD51 protein with single-stranded DNA): increasing doses of inhibitors; for formation of RAD51 protein nucleofilament (relative binding of RAD51 protein with single-stranded DNA) / activity on nucleofilament formation compared with reference molecule BPQ: FIG. 2; for activity on nucleofilament formation compared with reference molecule DIDS: low dose (5 μM)
T1 sequence (Q06609 1-339): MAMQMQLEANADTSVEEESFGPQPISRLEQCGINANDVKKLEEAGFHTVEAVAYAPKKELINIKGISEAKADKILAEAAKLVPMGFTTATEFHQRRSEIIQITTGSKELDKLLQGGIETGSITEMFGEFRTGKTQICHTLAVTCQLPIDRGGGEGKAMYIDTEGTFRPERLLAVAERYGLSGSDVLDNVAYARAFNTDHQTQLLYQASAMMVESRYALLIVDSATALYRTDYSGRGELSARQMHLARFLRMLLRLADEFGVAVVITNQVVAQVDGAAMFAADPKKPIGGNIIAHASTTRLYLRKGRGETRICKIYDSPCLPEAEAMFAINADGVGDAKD
Procedure: The binding of Rad51 to ssDNA was monitored and quantified by Bio-Layer Interferometry technology using the BLItz platform (FortéBio Inc.). The procedure includes four steps: (1) the baseline in buffer A containing 1×PBS, 10 mM MgCl2 and 0.0075% Tween20 was recorded for 20 s; (2) loading and binding of Rad51 were measured for 40 s using 1.5 μM Rad51 and 1 mM ATP in buffer A; (3) the dissociation of Rad51 from ssDNA was recorded for 20 s in buffer A; (4) the ssDNA biosensor was regenerated using baths of 50 mM NaOH. Except for the step 2, which used 4 μL drop of the protein sample, the steps 1, 3 and 4 used 250 μL solutions in 0.5 mL tube. The measurement parameters were as follows: room temperature measurement and stirring speed of 2200 rpm. To investigate the effect of CSB and analogs to the ssDNA binding of Rad51, the molecule was included in the protein sample of the step 2 at the indicated concentrations and incubated for 5 min before loading on the biosensor. (Normand, A. et al., “Identification and characterization of human Rad51 inhibitors by screening of an existing drug library.”, Biochemical Pharmacology, October 2014, Vol. 91, No. 3, pp. 293-300).
A test based on interferometry (Blitz®, Fortebio) allows the measure of the association kinetics of RAD51 protein with a single-stranded DNA immobilized on a biosensor support in the presence or absence of an inhibitor. The effect of compounds B-1, B-2, B-3, BPQ and X-4 on RAD51 nucleofilament formation has been evaluated in presence of increasing doses of inhibitors. The results are presented on FIG. 2.

HsRad51 = molecular target: T2, HsRad51 (Homo sapiens, UniProt Q06609); assay: RAD51 oligomerization by SDS-PAGE gel after crosslink; type: biochemical; details: 2.5 μM HsRad51, disuccinimidyl suberate crosslink, SDS-PAGE/Western blot; FIG. 1
T2 sequence (Q06609 1-339): T1 sequence (Q06609 1-339)
Procedure: The reaction was performed at room temperature. 2.5 μm HsRad51 was incubated with the indicated concentrations of tested compounds for 10 min in a buffer containing 20 mm sodium phosphate, 50 mm NaCl, 1 mm MgCl 2, and 1 mm ATP. The cross-linking reactions were initiated by the addition of disuccinimidyl suberate (50 μm) and allowed to proceed for 30 min. Reactions were quenched by the addition of Tris-HCl (pH 7.5, final concentration: 50 mm) followed by subsequent incubations for 15 min. The products were then separated by 12% SDS polyacrylamide gel electrophoresis and detected by Western blot with mouse monoclonal anti-Rad51 antibody (NeoMarkers) and anti-mouse Alexa-Fluor 700-conjugated secondary antibody (Molecular Probes, Eugene, OR). The cross-linked dimer was quantified by an Odyssey Infrared Imaging System scanner (Li-Cor Biosciences) (Martinez, S. F. et al., “Targeting human Rad51 by specific DNA aptamers induces inhibition of homologous recombination”, Biochimie, December 2010, Vol. 92, No. 12, pp. 1832-1838).
The SDS-PAGE electrophoresis after crosslink maintains and immobilizes the RAD51 protein complexes and thus allows visualization of the degree of oligomerization (polymer formation) of the RAD51 protein. The effect of RAD51 protein inhibitors B-1, B-2, B-3, DIDS and X-4 on this key step of RAD51 protein recombinase activity has thus been evaluated. The results are presented on FIG. 1.

[2] = system: recombinant fibroblast line RG37; assay: Intracellular homologous recombination (HR), GFP reconstitution after I-SceI cleavage, flow cytometry; type: cell-based; details: RG37 cells, 72 h after pCMV-HA-I-SceI transfection; FIG. 3
Procedure: After transfection with the pCMV-HA-I-SceI plasmid and incubation for 72 h, the cells were collected in PBS and 50 mM EDTA, pelleted and fixed with 2% paraformaledhyde for 20 min. The percentage of GFP-expressing cells was scored by FACS analysis using Cytoflex (Beckman Coulter). At least 3 independent experiments were performed, and HA-I-SceI expression was verified each time by Western blot with rabbit anti-HA antibody (Abcam).
The recombinant fibroblast line RG37 is used to confirm in vitro results (Examples 2-5) in the cellular context. This cellar line comprises two non-functional GFP cassettes, one of which has a unique cleavage site inducible by transfection of a restriction enzyme. After cleavage, which is equivalent to a double-strand break (DSB) of the DNA, the homologous recombination (HR) leads to the reconstitution of a complete GFP cassette thus making the cell fluorescent. The rate of intracellular HR is then determined by measurement in flow cytometry so as to measure the level of HR in cells after treatment with compounds C-3, B-2 and X-2.

Rad51 [3] = molecular target: T1, Rad51; assay: DNA invasion by D-loop assay (strand exchange); type: biochemical
Procedure: Labeled 100-ssDNA** (1 μM) was incubated with 0.5 μM Rad51 in presence or absence of the indicated amounts of the corresponding molecule in 10 μL of standard reaction buffer containing 20 mM Tris-HCl (pH 8), 1 mM ATP, 1 mM DTT, 1 mM CaCl2) at 37° C. for 20 min. The reaction was initiated by adding supercoiled pPB4.3 DNA (200 μM in bp). After incubation of 30 min at 37° C., the reactions were stopped and deproteinized by a stop solution (10 mM Tris-HCl pH 8, 10 mM MgCl2, 1% SDS, and 1 mg/mL proteinase K. The reaction mixtures were further incubated for 15 min at 37° C. After adding 5-fold loading dye (0.05% bromophenol blue, 8% glycerol, 1 mM EDTA), the reaction products were separated by electrophoresis on 1% agarose gel. The electrophoresis was carried out in 0.5×TAE buffer (20 mM Tris, 10 mM acetic acid and 1 mM EDTA) at 100 V for 2 h. The labeled products (100-ssDNA** and D-loop) were visualized and quantified by the detection of the IRD-700 dye with the 700 nm infrared fluorescent detection channel of an Odyssey Infrared Imager (LI-COR) (Normand, A. et al., Biochemical Pharmacology, October 2014, Vol. 91, No. 3, pp. 293-300).
The “D-loop” in vitro test allows the quantification of the formation of the strand exchange structure (D-loop) and thus the determination of the inhibitory power of a molecule during the strand exchange step of the recombinase mechanism. IC50 measuring the RAD51 protein inhibition in presence of compounds A-1 to A-5, […] and DIDS are then calculated.

[4] = 0.5 μM Rad51, 1 μM 100-ssDNA, 37° C., read-out: IC50 (RAD51 protein inhibition, D-loop formation)

## CC[C@@]1(O)C(=O)OCc2c1cc1n(c2=O)Cc2cc3ccccc3nc2-1 [camptothecin, reference compound]
DU-145 cell line
  IC50: 0.098 µM

## [N-]=[N+]=Nc1ccc(/C=C/c2ccc(N=[N+]=[N-])cc2)cc1 [X-4, (E)-1,2-bis(4-azidophenyl)ethene, reference compound]
Rad51 [1]
  formation of RAD51 protein nucleofilament (relative binding of RAD51 protein with single-stranded DNA): no inhibitory effect whatsoever
HsRad51
  oligomerization state of RAD51 protein: no effect

## O=C(Nc1ccc(/C=C/c2ccc(NC(=O)Oc3ccccc3)cc2S(=O)(=O)[O-])c(S(=O)(=O)[O-])c1)Oc1ccccc1.[Na+].[Na+] [C-3, Sodium (E)-6,6′-(ethene-1,2-diyl)bis(3-((phenoxycarbonyl)amino)benzenesulfonate)]
[2]
  intracellular HR inhibition: significant inhibitory effect
Rad51 [3]
  IC50: 2 µM

## [N-]=[N+]=Nc1ccc(/C=C/c2ccc(N=[N+]=[N-])cc2S(=O)(=O)[O-])c(S(=O)(=O)[O-])c1.[Na+].[Na+] [B-1, Sodium (E)-6,6′-(ethene-1,2-diyl)bis(3-azidobenzenesulfonate)]
Rad51 [3]; [4]
  IC50: 21 µM
Rad51 [1]
  activity on nucleofilament formation compared with reference molecule BPQ: comparable to or even better
  formation of RAD51 protein nucleofilament (relative binding of RAD51 protein with single-stranded DNA): inhibit
  activity on nucleofilament formation compared with reference molecule DIDS: comparable
HsRad51
  oligomerization state of RAD51 protein: significant reduction

## COc1ccc(C(=O)Nc2ccc(/C=C/c3ccc(NC(=O)c4ccc(OC)cc4)cc3S(=O)(=O)O)c(S(=O)(=O)O)c2)cc1 [A-4, Sodium (E)-6,6′-(ethene-1,2-diyl)bis(3-(4-methoxybenzamido)benzenesulfonate)]
Rad51 [3]; [4]
  IC50: 6 µM

## O=S(=O)(O)c1cc(NS(=O)(=O)c2ccccc2)ccc1/C=C/c1ccc(NS(=O)(=O)c2ccccc2)cc1S(=O)(=O)O [S-1, Sodium (E)-6,6′-(ethene-1,2-diyl)bis(3-(phenylsulfonamido)benzenesulfonate)]
Rad51 [3]; [4]
  IC50: 41 µM

## O=C(Nc1ccc(/C=C/c2ccc(NC(=O)Oc3ccccc3)cc2)cc1)Oc1ccccc1 [X-2, Diphenyl (ethene-1,2-diylbis(4,1-phenylene))(E)-dicarbamate, reference compound]
[2]
  intracellular HR inhibition: does not lead to any inhibition

## O=S(=O)([O-])c1cc(I)ccc1/C=C/c1ccc(I)cc1S(=O)(=O)[O-].[K+].[K+] [B-3, Potassium (E)-6,6′-(ethene-1,2-diyl)bis(3-iodobenzenesulfonate)]
Rad51 [3]; [4]
  IC50: 34 µM
Rad51 [1]
  activity on nucleofilament formation compared with reference molecule BPQ: comparable to or even better
  formation of RAD51 protein nucleofilament (relative binding of RAD51 protein with single-stranded DNA): inhibit
  activity on nucleofilament formation compared with reference molecule DIDS: comparable
HsRad51
  oligomerization state of RAD51 protein: significant reduction

## O=C(Nc1ccc(/C=C/c2ccc(NC(=O)c3ccccc3)cc2S(=O)(=O)O)c(S(=O)(=O)O)c1)c1ccccc1 [A-3, Sodium (E)-6,6′-(ethene-1,2-diyl)bis(3-benzamidobenzenesulfonate)]
Rad51 [3]; [4]
  IC50: > 10 µM

## Cc1ccc(S(=O)(=O)Nc2ccc(/C=C/c3ccc(NS(=O)(=O)c4ccc(C)cc4)cc3S(=O)(=O)O)c(S(=O)(=O)O)c2)cc1 [S-2, Sodium (E)-6,6′-(ethene-1,2-diyl)bis(3-((4-methylphenyl)sulfonamido)benzenesulfonate)]
Rad51 [3]; [4]
  IC50: 29 µM
